Measured values: PubChem BioAssay AID1745844 (Carcinogenic Potency Database (CPDB), 2022)
“And” between values parts separate entries of the source, which are not always exact repeats. Equal values may be shown once. The source made the active and inactive calls. How the calls were made is not given here.

Test system: rodent lifetime carcinogenesis bioassay, tumor incidence TD50
Experiment: chronic cancer bioassays in animals – CPDB, compiled studies (AID 1745844)

Which results are given for ClC=C(Cl)Cl?
TD50 (mouse, strain Swiss, males, inhaled, site: any site (literature study), lesion: several types, types named in the paper, dosed 78 weeks, study length 145 weeks): 8070 mg/kg/day; TD50 (mouse, strain Swiss, males, inhaled, site: liver, lesion: hepatoma, dosed 78 weeks, study length 145 weeks): 3910 mg/kg/day; TD50 (mouse, strain Swiss, males, inhaled, site: lung, lesion: one or several types, types not named, dosed 78 weeks, study length 145 weeks): 10100 mg/kg/day; TD50 (rat, strain ACI, females, by gavage, site: any site (literature study), lesion: several types, types named in the paper, dosed 103 weeks, study length 104 weeks): 61700 mg/kg/day; TD50 (rat, strain ACI, females, by gavage, site: kidney, lesion: adenocarcinoma, NOS + tubular-cell adenocarcinoma, dosed 103 weeks, study length 104 weeks): 7800 mg/kg/day; TD50 (rat, strain ACI, females, by gavage, site: kidney, lesion: adenocarcinoma, NOS + tubular-cell adenoma + tubular-cell adenocarcinoma, dosed 103 weeks, study length 104 weeks): 3760 mg/kg/day; TD50 (rat, strain ACI, males, by gavage, site: any site (literature study), lesion: several types, types named in the paper, dosed 103 weeks, study length 104 weeks): 820 mg/kg/day; TD50 (rat, strain ACI, males, by gavage, site: kidney, lesion: tubular-cell adenocarcinoma, dosed 103 weeks, study length 104 weeks): 12000 mg/kg/day; TD50 (rat, strain ACI, males, by gavage, site: liver, lesion: hepatocellular adenoma + hepatocellular carcinoma + neoplastic nodule, dosed 103 weeks, study length 104 weeks): 9400 mg/kg/day; TD50 (rat, strain August, females, by gavage, site: kidney, lesion: tubular-cell adenoma + tubular-cell adenocarcinoma, dosed 103 weeks, study length 104 weeks): 2240 mg/kg/day; TD50 (rat, strain August, males, by gavage, site: kidney, lesion: tubular-cell adenocarcinoma, dosed 103 weeks, study length 104 weeks): 10800 mg/kg/day; TD50 (rat, strain August, males, by gavage, site: kidney, lesion: tubular-cell adenoma + tubular-cell adenocarcinoma, dosed 103 weeks, study length 104 weeks): 3810 mg/kg/day; TD50 (rat, strain August, males, by gavage, site: liver, lesion: hepatocellular adenoma + hepatocellular carcinoma + neoplastic nodule, dosed 103 weeks, study length 104 weeks): 6440 mg/kg/day; TD50 (rat, strain August, males, by gavage, site: subcutaneous tissue, lesion: sarcoma, NOS + sarcoma, NOS, dosed 103 weeks, study length 104 weeks): 3730 mg/kg/day; TD50 (rat, strain Charles River CD (Sprague-Dawley), females, inhaled, site: kidney, lesion: tubular-cell adenocarcinoma, dosed 104 weeks, study length 107 weeks): 10700 mg/kg/day; TD50 (rat, strain Charles River CD (Sprague-Dawley), females, inhaled, site: liver, lesion: several types, types named in the paper, dosed 104 weeks, study length 107 weeks): 12300 mg/kg/day; TD50 (rat, strain Charles River CD (Sprague-Dawley), females, inhaled, site: mammary gland, lesion: fibroadenoma, dosed 104 weeks, study length 107 weeks): 982 mg/kg/day; TD50 (rat, strain Fischer 344, females, by gavage, site: any site (literature study), lesion: several types, types named in the paper, dosed 103 weeks, study length 103 weeks): 5710 mg/kg/day (inactive); TD50 (rat, strain Fischer 344, females, by gavage, site: kidney, lesion: tubular-cell adenocarcinoma, dosed 103 weeks, study length 103 weeks): 23000 mg/kg/day; TD50 (rat, strain Fischer 344, females, by gavage, site: liver, lesion: hepatocellular adenoma + hepatocellular carcinoma + neoplastic nodule, dosed 103 weeks, study length 103 weeks): 9980 mg/kg/day; TD50 (rat, strain Fischer 344, males, by gavage, site: any site (literature study), lesion: several types, types named in the paper, dosed 103 weeks, study length 103 weeks): 2240 mg/kg/day; TD50 (rat, strain Fischer 344, males, by gavage, site: kidney, lesion: tubular-cell adenocarcinoma, dosed 103 weeks, study length 103 weeks): 3920 mg/kg/day; TD50 (rat, strain Fischer 344, males, by gavage, site: kidney, lesion: tubular-cell adenoma + tubular-cell adenocarcinoma, dosed 103 weeks, study length 103 weeks): 2780 mg/kg/day; TD50 (rat, strain Fischer 344, males, by gavage, site: liver, lesion: hepatocellular adenoma + hepatocellular carcinoma + neoplastic nodule, dosed 103 weeks, study length 103 weeks): 12200 mg/kg/day; TD50 (rat, strain Fischer 344, males, by gavage, site: peritoneum, lesion: mesothelioma, NOS + mesothelioma, malignant, dosed 103 weeks, study length 103 weeks): 1490 mg/kg/day; TD50 (rat, strain Fischer 344, males, by gavage, site: peritoneum, lesion: mesothelioma, malignant, dosed 103 weeks, study length 103 weeks): 1490 mg/kg/day; TD50 (rat, strain Han:WIST, females, inhaled, site: any site (literature study), lesion: benign tumor, dosed 78 weeks, study length 156 weeks): 2120 mg/kg/day (inactive); carcinogen call (rat, strain Han:WIST, females, inhaled, site: any site (literature study), lesion: malignant tumor, dosed 78 weeks, study length 156 weeks): negative (inactive); TD50 (rat, strain Han:WIST, females, inhaled, site: kidney, lesion: tubular-cell adenoma, dosed 78 weeks, study length 156 weeks): 5500 mg/kg/day (inactive); carcinogen call (rat, strain Han:WIST, females, inhaled, site: liver, lesion: hepatocellular adenoma, dosed 78 weeks, study length 156 weeks): negative (inactive); carcinogen call (rat, strain Han:WIST, males, inhaled, site: any site (literature study), lesion: benign tumor, dosed 78 weeks, study length 156 weeks): negative (inactive); TD50 (rat, strain Han:WIST, males, inhaled, site: any site (literature study), lesion: malignant tumor, dosed 78 weeks, study length 156 weeks): 351 mg/kg/day (inactive); TD50 (rat, strain Han:WIST, males, inhaled, site: kidney, lesion: tubular-cell adenocarcinoma, dosed 78 weeks, study length 156 weeks): 3850 mg/kg/day (inactive); TD50 (rat, strain Han:WIST, males, inhaled, site: kidney, lesion: tubular-cell adenoma, dosed 78 weeks, study length 156 weeks): 10700 mg/kg/day (inactive); carcinogen call (rat, strain Han:WIST, males, inhaled, site: liver, lesion: hepatocellular adenoma, dosed 78 weeks, study length 156 weeks): negative (inactive); TD50 (rat, strain Marshall, females, by gavage, site: any site (literature study), lesion: several types, types named in the paper, dosed 103 weeks, study length 104 weeks): 709 mg/kg/day; TD50 (rat, strain Marshall, females, by gavage, site: kidney, lesion: tubular-cell adenocarcinoma, dosed 103 weeks, study length 104 weeks): 4110 mg/kg/day; TD50 (rat, strain Marshall, females, by gavage, site: kidney, lesion: tubular-cell adenoma + tubular-cell adenocarcinoma, dosed 103 weeks, study length 104 weeks): 4370 mg/kg/day; TD50 (rat, strain Marshall, males, by gavage, site: any site (literature study), lesion: several types, types named in the paper, dosed 103 weeks, study length 104 weeks): 199 mg/kg/day; TD50 (rat, strain Marshall, males, by gavage, site: kidney, lesion: tubular-cell adenocarcinoma, dosed 103 weeks, study length 104 weeks): 8000 mg/kg/day; TD50 (rat, strain Marshall, males, by gavage, site: kidney, lesion: tubular-cell adenoma + tubular-cell adenocarcinoma, dosed 103 weeks, study length 104 weeks): 5710 mg/kg/day; TD50 (rat, strain Marshall, males, by gavage, site: testis, lesion: interstitial-cell tumor + interstitial-cell tumor, malignant, dosed 103 weeks, study length 104 weeks): 153 mg/kg/day; TD50 (rat, strain Marshall, males, by gavage, site: testis, lesion: interstitial-cell tumor, malignant, dosed 103 weeks, study length 104 weeks): 6540 mg/kg/day; TD50 (rat, strain Osborne-Mendel, females, by gavage, site: adrenal gland, lesion: cortical adenoma, dosed 103 weeks, study length 104 weeks): 556 mg/kg/day; TD50 (rat, strain Osborne-Mendel, females, by gavage, site: any site (literature study), lesion: several types, types named in the paper, dosed 78 weeks, study length 110 weeks): 5620 mg/kg/day (inactive); TD50 (rat, strain Osborne-Mendel, females, by gavage, site: any site (literature study), lesion: several types, types named in the paper, dosed 103 weeks, study length 104 weeks): 372 mg/kg/day; TD50 (rat, strain Osborne-Mendel, females, by gavage, site: kidney, lesion: tubular-cell adenoma, dosed 103 weeks, study length 104 weeks): 10700 mg/kg/day; TD50 (rat, strain Osborne-Mendel, females, by gavage, site: liver, lesion: hepatocellular adenoma + hepatocellular carcinoma + neoplastic nodule, dosed 103 weeks, study length 104 weeks): 3500 mg/kg/day; TD50 (rat, strain Osborne-Mendel, males, by gavage, site: any site (literature study), lesion: several types, types named in the paper, dosed 78 weeks, study length 110 weeks): 16000 mg/kg/day; TD50 (rat, strain Osborne-Mendel, males, by gavage, site: any site (literature study), lesion: several types, types named in the paper, dosed 103 weeks, study length 104 weeks): 1490 mg/kg/day; TD50 (rat, strain Osborne-Mendel, males, by gavage, site: kidney, lesion: tubular-cell adenocarcinoma, dosed 78 weeks, study length 110 weeks): 7220 mg/kg/day; TD50 (rat, strain Osborne-Mendel, males, by gavage, site: kidney, lesion: tubular-cell adenoma + tubular-cell adenocarcinoma, dosed 103 weeks, study length 104 weeks): 628 mg/kg/day; TD50 (rat, strain Osborne-Mendel, males, by gavage, site: kidney, lesion: tubular-cell adenoma, dosed 103 weeks, study length 104 weeks): 628 mg/kg/day; TD50 (rat, strain Osborne-Mendel, males, by gavage, site: liver, lesion: hepatocellular adenoma + hepatocellular carcinoma + neoplastic nodule, dosed 103 weeks, study length 104 weeks): 8950 mg/kg/day; TD50 (rat, strain Sprague-Dawley, females, inhaled, site: any site (literature study), lesion: several types, types named in the paper, dosed 104 weeks, study length 159 weeks): 3890 mg/kg/day; TD50 (rat, strain Sprague-Dawley, females, inhaled, site: kidney, lesion: several types, types named in the paper, dosed 104 weeks, study length 159 weeks): 41300 mg/kg/day; TD50 (rat, strain Sprague-Dawley, females, inhaled, site: kidney, lesion: tubular-cell adenocarcinoma, dosed 104 weeks, study length 159 weeks): 43200 mg/kg/day; TD50 (rat, strain Sprague-Dawley, females, inhaled, site: liver, lesion: angiosarcoma, dosed 104 weeks, study length 159 weeks): 8010 mg/kg/day; TD50 (rat, strain Sprague-Dawley, females, inhaled, site: liver, lesion: neoplastic nodule, dosed 104 weeks, study length 159 weeks): 9680 mg/kg/day; TD50 (rat, strain Sprague-Dawley, males, by gavage, site: all sites, lesion: leukemia, dosed 52 weeks, study length 140 weeks): 428 mg/kg/day; TD50 (rat, strain Sprague-Dawley, males, by gavage, site: any site (literature study), lesion: malignant tumor, dosed 52 weeks, study length 140 weeks): 818 mg/kg/day; TD50 (rat, strain Sprague-Dawley, males, inhaled, site: all sites, lesion: leukemia, dosed 104 weeks, study length 159 weeks): 5930 mg/kg/day and 2810 mg/kg/day; TD50 (rat, strain Sprague-Dawley, males, inhaled, site: kidney, lesion: tubular-cell adenocarcinoma, dosed 104 weeks, study length 159 weeks): 9490 mg/kg/day and 12400 mg/kg/day; TD50 (rat, strain Sprague-Dawley, males, inhaled, site: kidney, lesion: tubular-cell adenoma, dosed 104 weeks, study length 159 weeks): 29200 mg/kg/day; TD50 (rat, strain Sprague-Dawley, males, inhaled, site: liver, lesion: neoplastic nodule, dosed 104 weeks, study length 159 weeks): 30700 mg/kg/day; TD50 (rat, strain Sprague-Dawley, males, inhaled, site: mammary gland, lesion: one or several types, types not named, dosed 104 weeks, study length 159 weeks): 120 mg/kg/day; TD50 (rat, strain Sprague-Dawley, males, inhaled, site: testis, lesion: Leydig-cell tumor, dosed 104 weeks, study length 159 weeks): 557 mg/kg/day and 835 mg/kg/day
